# Assay results published in ChEMBL document CHEMBL1153119, “Design and synthesis of orally-active and selective azaindane 5HT2c agonist for the treatment of obesity” (Bioorg Med Chem Lett, 2010).
# Calls of active or inactive are those of the source. The rule behind the calls is not given here.
# Tests used:
# [1] = molecular target: T1, 5-hydroxytryptamine receptor 2C (Homo sapiens, UniProt P28335); assay: Displacement of [3H]5HT from human 5HT2C receptor expressed in mouse 3T3 cells by scintillation counting; assay type: cell-based, NIH3T3
# T1 sequence (P28335 whole entry): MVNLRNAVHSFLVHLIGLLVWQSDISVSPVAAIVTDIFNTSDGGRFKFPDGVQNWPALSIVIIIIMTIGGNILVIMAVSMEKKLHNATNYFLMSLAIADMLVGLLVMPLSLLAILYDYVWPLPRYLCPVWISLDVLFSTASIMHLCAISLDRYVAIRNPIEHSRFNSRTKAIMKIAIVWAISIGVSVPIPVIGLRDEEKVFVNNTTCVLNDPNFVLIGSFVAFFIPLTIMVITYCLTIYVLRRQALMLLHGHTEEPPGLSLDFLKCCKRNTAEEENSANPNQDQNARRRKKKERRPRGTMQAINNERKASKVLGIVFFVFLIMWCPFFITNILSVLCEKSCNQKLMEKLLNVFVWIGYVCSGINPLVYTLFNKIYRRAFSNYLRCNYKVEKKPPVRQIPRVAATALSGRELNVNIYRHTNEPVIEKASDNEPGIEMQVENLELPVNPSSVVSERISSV
# [2] = molecular target: T1, 5-hydroxytryptamine receptor 2C; assay: Agonist activity against human 5HT2C receptor by FLIPR assay; assay type: functional
# [3] = molecular target: T2, 5-hydroxytryptamine receptor 2C (Homo sapiens) (UniProt P28335); assay: Agonist activity against human 5HT2C receptor by FLIPR assay
# T2 sequence (whole entry): T1 sequence (P28335 whole entry)
# [4] = molecular target: T1, 5-hydroxytryptamine receptor 2C; assay: Antagonist activity against human 5HT2C receptor by FLIPR assay; assay type: functional
# [5] = molecular target: T3, 5-hydroxytryptamine receptor 2B (Homo sapiens, UniProt P41595); assay: Displacement of [125I]DOI from human 5HT2B receptor expressed in CHO cells; assay type: cell-based
# [6] = molecular target: 5-hydroxytryptamine receptor 2A (Rattus norvegicus, UniProt P14842); assay: Displacement of [125I]DOI from rat 5HT2A receptor expressed in mouse 3T3 cells; assay type: cell-based, NIH3T3
# [7] = molecular target: T4, 5-hydroxytryptamine receptor 2A (Homo sapiens, UniProt P28223); assay: Agonist activity against human 5HT2A receptor by FLIPR assay relative to 5HT; assay type: functional
# [8] = molecular target: T3, 5-hydroxytryptamine receptor 2B; assay: Agonist activity against human 5HT2B receptor by FLIPR assay relative to 5HT; assay type: functional
# [9] = molecular target: T4, 5-hydroxytryptamine receptor 2A; assay: Agonist activity against human 5HT2A receptor by FLIPR assay; assay type: functional
# [10] = molecular target: T3, 5-hydroxytryptamine receptor 2B; assay: Agonist activity against human 5HT2B receptor by FLIPR assay; assay type: functional
# [11] = Half life in dog microsomes at 0.3 mM; assay type: ADME, Canis lupus familiaris, Microsome
# [12] = Half life in rat microsomes at 0.3 mM; assay type: ADME, Microsome
# [13] = Half life in monkey microsomes at 0.3 mM; assay type: ADME, Macaca mulatta, Microsome; conditions: rhesus monkey
# [14] = Ratio of drug uptake in CSF to free plasma in rat; assay type: ADME, organism-based; conditions: in vivo
# [15] = Intrinsic clearance in monkey microsomes at 0.3 mM; assay type: ADME, Macaca mulatta, Microsome; conditions: rhesus monkey
# [16] = Clearance in monkey; assay type: ADME, organism-based, Macaca mulatta; conditions: rhesus monkey, in vivo
# [17] = Half life in human microsomes at 0.3 mM; assay type: ADME, Microsome
# [18] = Half life in human hepatocyte at 1 mM; assay type: ADME, cell-based, Liver; conditions: hepatocytes
# [19] = Intrinsic clearance in rat hepatocyte at 1 mM; assay type: ADME, cell-based, Liver; conditions: hepatocytes
# [20] = Intrinsic clearance in dog hepatocyte at 1 mM; assay type: ADME, tissue-based, Canis lupus familiaris, Liver; conditions: hepatocytes
# [21] = Half life in monkey hepatocyte at 1 mM; assay type: ADME, Macaca mulatta, Liver; conditions: rhesus monkey, hepatocytes
# [22] = Ratio of drug uptake in brain to plasma in rat; assay type: ADME, organism-based; conditions: in vivo
# [23] = molecular target: T3, 5-hydroxytryptamine receptor 2B; assay: Agonist activity against 5HT2B receptor assessed as inositol phosphate accumulation; assay type: functional
# [24] = molecular target: T4, 5-hydroxytryptamine receptor 2A; assay: Agonist activity against 5HT2A receptor assessed as inositol phosphate accumulation; assay type: functional
# [25] = Ratio of drug uptake in CSF to plasma in rat; assay type: ADME
# [26] = Intrinsic clearance in human microsomes at 0.3 mM; assay type: ADME, Microsome
# [27] = molecular target: T2, 5-hydroxytryptamine receptor 2C (Homo sapiens); assay: Antagonist activity against 5HT2c receptor; assay type: functional
# [28] = molecular target: T3, 5-hydroxytryptamine receptor 2B; assay: Antagonist activity against 5HT2B receptor; assay type: functional
# [29] = molecular target: Voltage-gated inwardly rectifying potassium channel KCNH2 (Homo sapiens, UniProt Q12809); assay: Inhibition of human ERG channel
# [30] = molecular target: T2, 5-hydroxytryptamine receptor 2C (Homo sapiens); assay: Agonist activity against human 5HT2C receptor assessed as inositol phosphate accumulation; assay type: functional
# [31] = Intrinsic clearance in monkey hepatocyte at 1 mM; assay type: ADME, tissue-based, Macaca mulatta, Liver; conditions: rhesus monkey, hepatocytes
# [32] = Intrinsic clearance in human hepatocyte at 1 mM; assay type: ADME, cell-based, Liver; conditions: hepatocytes
# [33] = Clearance in dog; assay type: ADME, organism-based, Canis lupus familiaris; conditions: in vivo
# [34] = molecular target: T1, 5-hydroxytryptamine receptor 2C; assay: Agonist activity against human 5HT2C receptor by GTPgammaS binding; assay type: functional
# [35] = Intrinsic clearance in dog microsomes at 0.3 mM; assay type: ADME, Canis lupus familiaris, Liver, Microsome
# [36] = Half life in rat hepatocyte at 1 mM; assay type: ADME, cell-based, Liver; conditions: hepatocytes
# [37] = Half life in dog hepatocyte at 1 mM; assay type: ADME, Canis lupus familiaris, Liver; conditions: hepatocytes
# [38] = molecular target: T4, 5-hydroxytryptamine receptor 2A; assay: Antagonist activity against 5HT2A receptor; assay type: functional
# Rattus norvegicus = assay: Antiobesity activity in Sprague-Dawley rat model assessed as reduction in food intake at 100 mg/kg, po after 2 hrs; assay type: functional; parameters: scale not given: the % may be the effect or the level left
# [39] = molecular target: T2, 5-hydroxytryptamine receptor 2C (Homo sapiens); assay: Agonist activity against human 5HT2C receptor by GTPgammaS binding relative to control; assay type: functional
# [40] = Intrinsic clearance in rat microsomes at 0.3 mM; assay type: ADME, Microsome
# [41] = Clearance in rat; assay type: ADME, organism-based; conditions: in vivo
# T4 sequence (P28223 whole entry): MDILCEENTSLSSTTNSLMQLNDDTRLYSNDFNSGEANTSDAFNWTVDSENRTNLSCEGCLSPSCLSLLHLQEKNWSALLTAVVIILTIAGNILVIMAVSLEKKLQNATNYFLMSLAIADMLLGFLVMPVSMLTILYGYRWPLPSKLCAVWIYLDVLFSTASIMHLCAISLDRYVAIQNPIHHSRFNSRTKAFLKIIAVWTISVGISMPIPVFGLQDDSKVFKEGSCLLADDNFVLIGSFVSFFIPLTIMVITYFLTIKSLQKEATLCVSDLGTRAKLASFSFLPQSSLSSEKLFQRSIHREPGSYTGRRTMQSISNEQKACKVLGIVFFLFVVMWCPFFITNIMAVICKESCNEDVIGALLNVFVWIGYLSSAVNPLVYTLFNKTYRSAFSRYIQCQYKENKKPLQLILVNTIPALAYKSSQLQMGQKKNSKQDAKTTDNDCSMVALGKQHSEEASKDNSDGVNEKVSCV
# T3 sequence (P41595 whole entry): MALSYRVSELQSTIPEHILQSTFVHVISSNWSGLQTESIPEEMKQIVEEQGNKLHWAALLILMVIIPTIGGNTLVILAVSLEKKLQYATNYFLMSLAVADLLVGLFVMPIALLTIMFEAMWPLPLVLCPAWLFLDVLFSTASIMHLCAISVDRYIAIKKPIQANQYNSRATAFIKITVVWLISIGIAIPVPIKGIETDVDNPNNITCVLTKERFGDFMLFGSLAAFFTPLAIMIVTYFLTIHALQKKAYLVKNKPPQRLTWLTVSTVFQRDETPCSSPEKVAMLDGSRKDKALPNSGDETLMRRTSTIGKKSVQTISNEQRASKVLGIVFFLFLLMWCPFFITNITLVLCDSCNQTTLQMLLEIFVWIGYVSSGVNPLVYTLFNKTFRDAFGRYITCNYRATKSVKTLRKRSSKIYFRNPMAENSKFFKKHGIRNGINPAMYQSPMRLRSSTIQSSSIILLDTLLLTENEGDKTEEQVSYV
# Chain of 5-hydroxytryptamine receptor 2A (Rattus norvegicus, UniProt P14842) (P14842 whole entry): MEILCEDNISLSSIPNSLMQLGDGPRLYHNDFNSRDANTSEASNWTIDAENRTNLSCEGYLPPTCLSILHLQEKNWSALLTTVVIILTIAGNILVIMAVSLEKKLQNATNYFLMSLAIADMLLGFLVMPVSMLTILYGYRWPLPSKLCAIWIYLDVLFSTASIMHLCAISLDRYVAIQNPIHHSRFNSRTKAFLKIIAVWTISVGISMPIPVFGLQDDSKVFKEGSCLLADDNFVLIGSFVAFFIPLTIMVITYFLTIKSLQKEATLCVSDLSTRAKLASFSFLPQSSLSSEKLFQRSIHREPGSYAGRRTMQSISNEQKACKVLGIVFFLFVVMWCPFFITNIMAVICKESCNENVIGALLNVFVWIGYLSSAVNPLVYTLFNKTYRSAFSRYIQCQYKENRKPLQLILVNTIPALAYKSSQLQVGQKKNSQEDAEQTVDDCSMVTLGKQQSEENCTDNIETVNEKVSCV
# Chain of Voltage-gated inwardly rectifying potassium channel KCNH2 (Q12809 whole entry): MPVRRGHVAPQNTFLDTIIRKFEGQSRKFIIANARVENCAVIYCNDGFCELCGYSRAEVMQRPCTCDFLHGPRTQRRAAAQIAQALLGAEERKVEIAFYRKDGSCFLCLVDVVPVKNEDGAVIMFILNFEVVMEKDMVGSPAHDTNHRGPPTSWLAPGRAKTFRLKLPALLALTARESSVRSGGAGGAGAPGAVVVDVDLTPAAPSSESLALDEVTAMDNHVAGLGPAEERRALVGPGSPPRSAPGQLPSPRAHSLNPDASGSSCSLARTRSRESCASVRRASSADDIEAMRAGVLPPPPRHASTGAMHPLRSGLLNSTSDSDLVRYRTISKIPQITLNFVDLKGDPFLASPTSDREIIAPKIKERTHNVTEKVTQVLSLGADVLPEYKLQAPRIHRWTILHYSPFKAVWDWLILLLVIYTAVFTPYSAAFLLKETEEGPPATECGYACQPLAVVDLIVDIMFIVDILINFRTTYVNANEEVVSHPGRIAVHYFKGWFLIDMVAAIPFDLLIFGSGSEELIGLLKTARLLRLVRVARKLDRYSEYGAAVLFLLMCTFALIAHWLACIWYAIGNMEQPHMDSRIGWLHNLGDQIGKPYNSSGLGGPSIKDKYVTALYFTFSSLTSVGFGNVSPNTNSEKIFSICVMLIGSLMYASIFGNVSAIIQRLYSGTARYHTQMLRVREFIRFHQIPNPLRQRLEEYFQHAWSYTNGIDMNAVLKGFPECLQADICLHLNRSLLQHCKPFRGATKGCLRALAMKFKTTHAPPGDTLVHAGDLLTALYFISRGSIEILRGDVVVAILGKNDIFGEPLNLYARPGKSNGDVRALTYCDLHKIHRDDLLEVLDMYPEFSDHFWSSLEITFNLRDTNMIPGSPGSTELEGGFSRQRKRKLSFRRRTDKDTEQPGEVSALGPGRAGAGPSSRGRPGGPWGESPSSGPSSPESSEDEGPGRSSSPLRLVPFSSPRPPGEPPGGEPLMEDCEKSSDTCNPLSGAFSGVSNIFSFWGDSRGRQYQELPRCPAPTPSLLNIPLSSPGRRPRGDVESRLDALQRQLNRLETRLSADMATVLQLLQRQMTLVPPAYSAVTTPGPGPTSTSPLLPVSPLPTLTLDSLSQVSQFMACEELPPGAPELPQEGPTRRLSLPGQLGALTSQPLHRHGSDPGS
structure (smiles),measurement,setting,value
C[C@@H]1CNCCN1c1ccc2c(n1)[C@@H](Oc1ccccc1Cl)CC2,Ki,[1],0.6 nM
Fc1cccc(O[C@H]2CCc3ccc(N4CCNCC4)nc32)c1,Ki,[1],3 nM
c1nc(N2CCNCC2)c2cc[nH]c2n1,EC50,[2],755 nM
same,Activity,[3],91%
Cn1cnc2nc(OCc3ccccc3)nc(N3CCNCC3)c21,IC50,[4],> 500 nM
Cc1cc2c(N3CCNCC3)ncnc2o1,EC50,[2],660 nM
same,Activity,[3],45%
c1cc2c(nc1N1CCNCC1)CCCC2,Ki,[5]; cho,Not Active
same,Ki,[6],21 nM
same,EC50,[2],25 nM
same,Activity,[7],60%
same,Activity,[8],Active
same,Activity,[3],93%
same,EC50,[9],2200 nM
Fc1ccc(F)c(CO[C@H]2CCc3ccc(N4CCNCC4)nc32)c1,Ki,[5]; read-out: Ki,153 nM
same,Ki,[6],15 nM
same,EC50,[2],1.4 nM
same,Activity,[7],13%
same,EC50,[10],2700 nM
same,Activity,[8],18%
same,Activity,[3],91%
same,EC50,[9],1500 nM
c1ccc2c(c1)sc1c(N3CCNCC3)ncnc12,Activity,[3],31%
Cc1csc2c(OCc3cccc(Cl)c3)nc(N3CCNCC3)nc12,IC50,[4],126 nM
Clc1ccccc1O[C@H]1CCCc2ccc(N3CCNCC3)nc21,Ki,[5]; cho,Not Active
same,Ki,[6],0.7 nM
same,EC50,[2],10 nM
same,Activity,[7],93%
same,EC50,[10],397 nM
same,Activity,[3],97%
same,EC50,[9],70 nM
Brc1cn2ccnc2c(N2CCNCC2)n1,EC50,[2],1360 nM
same,Activity,[3],79%
Clc1ccccc1O[C@@H]1CCCc2ccc(N3CCNCC3)nc21,Ki,[5]; cho,Not Active
same,Ki,[6],2 nM
same,EC50,[2],120 nM
same,Activity,[7],76%
same,EC50,[10],998 nM
same,Activity,[3],95%
same,EC50,[9],578 nM
Clc1ccccc1O[C@H]1CCc2ccc(N3CCNCC3)nc21,Ki,[5]; cho,Not Active
same,Ki,[6],1 nM
same,EC50,[2],0.1 nM
same,Activity,[7],87%
same,EC50,[10],300 nM
same,Activity,[8],58%
same,Activity,[3],92%
same,EC50,[9],87 nM
Clc1nc(N2CCNCC2)c2scc(-c3ccccc3)c2n1,IC50,[4],540 nM
Clc1cccc(COc2nc(N3CCNCC3)nc3sccc23)c1,EC50,[2],1200 nM
same,Activity,[3],53%
Cc1ccc(F)cc1CO[C@H]1CCc2ccc(N3CCNC[C@H]3C)nc21,IC50,[4],≤ 86 nM
same,half-life,[11],24 min
same,half-life,[12],2.2 min
same,half-life,[13],12 min
same,ratio,[14],0.5
same,CLint scaled,[15],350 mL/min/kg
same,clearance,[16],8.6 mL/min/kg
same,half-life,[17],44 min
same,half-life,[18],170 min
same,CLint scaled,[19],400 mL/min/kg
same,CLint scaled,[20],41 mL/min/kg
same,Ki,[6],4.4 nM
same,half-life,[21],53 min
same,ratio,[22],3.4
same,EC50,[23],> 10000 nM
same,EC50,[2],3.4 nM
same,Activity,[24],inactive
same,Kp,[25],0.015
same,CLint scaled,[26],20 mL/min/kg
same,Kb,[27],inactive
same,Kb,[28],4 nM
same,EC50,[10],566 nM
same,IC50,[29],3900 nM
same,Activity,[30],inactive
same,CLint scaled,[31],43 mL/min/kg
same,Emax,[8],28%
same,CLint scaled,[32],5.1 mL/min/kg
same,clearance,[33],34 mL/min/kg
same,EC50,[34],1.9 nM
same,CLint scaled,[35],59 mL/min/kg
same,half-life,[36],4.7 min
same,half-life,[37],64 min
same,Kb,[38],62 nM
same,EC50,[9],630 nM
same,Activity,Rattus norvegicus,-74%
same,Activity,[39],86%
same,CLint scaled,[40],1500 mL/min/kg
same,clearance,[41],90 mL/min/kg
Clc1ccccc1O[C@@H]1CCc2ccc(N3CCNCC3)nc21,Ki,[5]; cho,Not Active
same,Ki,[6],41 nM
same,EC50,[2],22 nM
same,Activity,[7],46%
same,EC50,[10],748 nM
same,Activity,[8],21%
same,Activity,[3],97%
same,EC50,[9],1310 nM
c1ccc2c(N3CCNCC3)nccc2c1,IC50,[4],24 nM
c1cc2occc2c(N2CCNCC2)n1,EC50,[2],164 nM
same,Activity,[3],67%
C[C@@H]1CNCCN1c1ccc2c(n1)[C@@H](OCc1cc(F)ccc1F)CC2,Ki,[5]; read-out: Ki,83 nM
same,Ki,[6],16 nM
same,EC50,[2],1 nM
same,Activity,[7],18%
same,Activity,[3],96%
same,EC50,[9],1430 nM
Clc1cccc(COc2nc(N3CCNCC3)nc3nc[nH]c23)c1,IC50,[4],410 nM
c1nc(N2CCNCC2)c2sccc2n1,EC50,[2],400 nM
same,Activity,[3],81%
COc1nc(N2CCNCC2)nc2c1CCCC2,EC50,[2],5000 nM
same,Activity,[3],53%
c1nc(N2CCNCC2)c2ccsc2n1,EC50,[2],530 nM
same,Activity,[3],74%
c1cc2sccc2c(N2CCNCC2)n1,EC50,[2],187 nM
same,Activity,[3],60%
Clc1nc(N2CCNCC2)c2c3c(sc2n1)CCCC3,IC50,[4],710 nM
Clc1nc(N2CCNCC2)nc2sccc12,EC50,[2],616 nM
same,Activity,[3],69%
Clc1ccccc1OC1CCc2ccc(N3CCNCC3)nc21 (stereo not given),Ki,[5]; cho,Not Active
same,Ki,[6],3.8 nM
same,EC50,[2],0.1 nM
same,Activity,[7],75%
same,EC50,[10],187 nM
same,Activity,[8],50%
same,Activity,[3],93%
same,EC50,[9],236 nM
Clc1cccc(COc2nc(N3CCNCC3)nc3ccsc23)c1,EC50,[2],2600 nM
same,Activity,[3],43%
CCCn1cnc2c(N3CCNCC3)ncnc21,EC50,[2],1250 nM
same,Activity,[3],55%
